Source: patent publication US20110319431A1, “Bis Aromatic Compounds for Use as LTC4 Synthase Inhibitors” (BIOLIPOX AB, priority 2009, published 2011)

Molecular target: T1, Recombinant human LTC4 synthase (Homo sapiens, UniProt Q16873)
T1 construct: made in house; host or cells: Pichia pastoris
T1 sequence (Q16873 1-150): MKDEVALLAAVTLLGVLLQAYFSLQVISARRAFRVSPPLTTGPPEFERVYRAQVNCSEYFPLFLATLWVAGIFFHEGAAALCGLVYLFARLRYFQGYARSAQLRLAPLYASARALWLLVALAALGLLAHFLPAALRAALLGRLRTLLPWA
Assay: In vitro LTC4 synthase assay (LTA4 to LTC4, HTRF detection)
Type: biochemical
Settings: for inhibition at 10 µM: 5 min, total concentration of title compounds in the assay 10 μM; for IC50: title compounds of the Examples
Method: In the assay, LTC4 synthase catalyses the reaction where the substrate LTA4 is converted to LTC4. Recombinant human LTC4 synthase is expressed in Piccia pastoralis and the purified enzyme is dissolved in 25 mM tris-buffer pH 7.8 supplemented with 0.1 mM glutathione (GSH) and stored at −80° C. The assay is performed in phosphate buffered saline (PBS) pH 7.4 and 5 mM GSH in 384-well plates.
The following is added chronologically to each well:
1. 48 μL LTC4 synthase in PBS with 5 mM GSH. The total protein concentration in this solution is 0.5 μg/mL. 2. 1 μL inhibitor in DMSO (final concentration 10 μM). 3. Incubation of the plate at room temperature for 10 min. 4. 1 μL LTA4 (final concentration 2.5 μM). 5. Incubation of the plate at room temperature for 5 min. 6. 10 μL of the incubation mixture is analysed using homogenous time resolved fluorescent (HTRF) detection.

Structure (SMILES)	inhibition at 10 µM [%]	IC50 [nM]
CN(c1ccc(Cl)cc1)c1ccc(C(=O)c2ccc([S+]([O-])c3ccc(F)c(F)c3)c(C(=O)O)c2)cc1 (centres unmarked) [1:3, 5-{4-[(4-Chlorophenyl)(methyl)amino]benzoyl}2-(3,4-difluorophenylsulfinyl)-benzoic acid]	100	107
CN(c1ccc(Cl)cc1)c1ccc(C(=O)c2ccc([S+]([O-])C3CCCC3)c(C(=O)O)c2)cc1 (centres unmarked) [1:4, 5-{4-[(4-Chlorophenyl)(methyl)amino]benzoyl}-2-(cyclopentylsulfinyl)benzoic acid]		161
CN(c1ccc(Cl)cc1)c1ccc(C(=O)c2ccc([S+]([O-])C3CCCCC3)c(C(=O)O)c2)cc1 (centres unmarked) [1:5, 5-{4-[(4-Chlorophenyl)(methyl)amino]benzoyl}-2-(cyclohexylsulfinyl)benzoic acid]		134
CN(c1ccc(Cl)cc1)c1ccc(C(=O)c2ccc([S+]([O-])C34CC5CC(CC(C5)C3)C4)c(C(=O)O)c2)cc1 (centres unmarked) [1:6, 2-(1-Adamantylsulfinyl)-5-{4-[(4-chlorophenyl)methylamino]benzoyl}benzoic acid]		96
CCCC[S+]([O-])c1ccc(C(=O)c2ccc(N(C)c3ccc(Cl)cc3)cc2)cc1C(=O)O (centres unmarked) [1:7, 2-(1-Butylsulfinyl)-5-{4-[(4-chlorophenyl)(methyl)amino]benzoyl}benzoic acid]		160
CN(c1ccc(Cl)cc1)c1ccc(C(=O)c2ccc([S+]([O-])c3ccccc3)c(C(=O)O)c2)cc1 (centres unmarked) [1:8, 5-{4-[(4-Chlorophenyl)(methyl)amino]benzoyl}-2-(phenylsulfinyl)benzoic acid]		82
CN(c1ccc(Cl)cc1)c1ccc(C(=O)c2ccc([S+]([O-])Cc3ccccc3)c(C(=O)O)c2)cc1 (centres unmarked) [1:9, 2-(Benzylsulfinyl)-5-{4-[(4-chlorophenyl)(methyl)amino]benzoyl}benzoic acid]		109
CN(c1ccc(Cl)cc1)c1ccc(C(=O)c2ccc([S+]([O-])CC34CCC(CC3O)C4(C)C)c(C(=O)O)c2)cc1 (centres unmarked) [1:10, 5-{4-[(4-Chlorophenyl)(methyl)amino]benzoyl}-2-[(2-hydroxy-7,7-dimethyl-bicyclo[2.2.1]-1-heptyl)methylsulfinyl]benzoic acid]		86
O=C(c1ccc([S+]([O-])c2cccc(C(F)(F)F)c2)c(C(=O)O)c1)c1ccc(N(CC2CC2)c2ccc(Cl)cc2)cn1 (centres unmarked) [1:15, 5-{5-[(4-Chlorophenyl)cyclopropylmethylamino]pyridine-2-carbonyl}-2-(3-tri-fluoromethylphenylsulfinyl)benzoic acid]		28
CCCCCC[S+]([O-])c1ccc(C(=O)c2ccc(N(CC3CC3)c3ccc(Cl)cc3)cn2)cc1C(=O)O (centres unmarked) [1:16, 5-{5-[(4-Chlorophenyl)cyclopropylmethylamino]pyridine-2-carbonyl}-2-(1-hexyl-sulfinyl)benzoic acid]		35
O=C(c1ccc([S+]([O-])c2ccc(Br)cc2)c(C(=O)O)c1)c1ccc(N(CC2CC2)c2ccc(Cl)cc2)cn1 (centres unmarked) [1:17, 2-(4-Bromophenylsulfinyl)-5-{5-[(4-chlorophenyl)cyclopropylmethylamino]-pyridine-2-carbonyl}benzoic acid]		34
O=C(c1ccc([S+]([O-])c2cccc(Cl)c2)c(C(=O)O)c1)c1ccc(N(CC2CC2)c2ccc(Cl)cc2)cn1 (centres unmarked) [1:18, 2-(3-Chlorophenylsulfinyl)-5-{5-[(4-chlorophenyl)cyclopropylmethylamino]-pyridine-2-carbonyl}benzoic acid]		31
CN(c1ccc(Cl)cc1)c1ccc(C(=O)c2ccc(Sc3ccc(F)c(F)c3)c(C(=O)O)c2)cc1 [2:3, 5-{4-[(4-Chlorophenyl)(methyl)amino]benzoyl}-2-(3,4-difluorophenyl-sulfanyl)benzoic acid]	96	51
CN(c1ccc(Cl)cc1)c1ccc(C(=O)c2ccc(SCC34CCC(CC3O)C4(C)C)c(C(=O)O)c2)cc1 (centres unmarked) [2:4, 5-{4-[(4-Chlorophenyl)methylamino]benzoyl}-2-(2-hydroxy-7,7-dimethyl-bicyclo[2.2.1]-1-heptylmethylsulfanyl)benzoic acid]		130
CCCCCCSc1ccc(C(=O)c2ccc(N(C)c3ccc(Cl)cc3)cn2)cc1C(=O)O [2:5]		129
CN(c1ccc(Cl)cc1)c1ccc(C(=O)c2ccc(Sc3ccc(F)c(F)c3)c(C(=O)O)c2)nc1 [2:6]		47
O=C(c1ccc(N(CC2CC2)c2ccc(Cl)cc2)cc1)c1ccc(Sc2ccccc2)c(C(=O)O)c1 [2:8, 5-{4-[(4-Chlorophenyl)cyclopropylmethylamino]benzoyl}-2-phenylsulfanyl-benzoic acid]		74

Structure (SMILES)	inhibition at 10 µM [%]	IC50 [nM]
O=C(c1ccc(Sc2ccc(Cl)cc2)c(C(=O)O)c1)c1ccc(N(CC2CC2)c2ccc(Cl)cc2)cn1 [2:9, 5-{5-[(4-Chlorophenyl)cyclopropylmethylamino]pyridine-2-carbonyl}-2-(4-chlorophenylsulfanyl)benzoic acid]		74
O=C(c1ccc(Sc2ccccc2Cl)c(C(=O)O)c1)c1ccc(N(CC2CC2)c2ccc(Cl)cc2)cn1 [2:10, 5-{5-[(4-Chlorophenyl)cyclopropylmethylamino]pyridine-2-carbonyl}-2-(2-chlorophenylsulfanyl)benzoic acid]		22
O=C(c1ccc(Sc2ccc(F)cc2)c(C(=O)O)c1)c1ccc(N(CC2CC2)c2ccc(Cl)cc2)cn1 [2:11, 5-{5-[(4-Chlorophenyl)cyclopropylmethylamino]pyridine-2-carbonyl}-2-(4-fluorophenylsulfanyl)benzoic acid]		46
O=C(c1ccc(Sc2cccc(C(F)(F)F)c2)c(C(=O)O)c1)c1ccc(N(CC2CC2)c2ccc(Cl)cc2)cn1 [2:12, 5-{5-[(4-Chlorophenyl)cyclopropylmethylamino]pyridine-2-carbonyl}-2-(3-trifluoromethylphenylsulfanyl)benzoic acid]		76
O=C(c1ccc(Sc2ccc(C(F)(F)F)cc2)c(C(=O)O)c1)c1ccc(N(CC2CC2)c2ccc(Cl)cc2)cn1 [2:13, 5-{5-[(4-Chlorophenyl)cyclopropylmethylamino]pyridine-2-carbonyl}-2-(4-trifluoromethylphenylsulfanyl)benzoic acid]		129
O=C(c1ccc(Sc2ccccc2)c(C(=O)O)c1)c1ccc(N(CC2CC2)c2ccc(Cl)cc2)cn1 [2:14, 5-{5-[(4-Chlorophenyl)cyclopropylmethylamino]pyridine-2-carbonyl}-2-phenylsulfanylbenzoic acid]		47
CCCCCCSc1ccc(C(=O)c2ccc(N(CC3CC3)c3ccc(Cl)cc3)cn2)cc1C(=O)O [2:15, 5-{5-[(4-Chlorophenyl)cyclopropylmethylamino]pyridine-2-carbonyl}-2-(1-hexylsulfanyl)benzoic acid]		96
O=C(c1ccc(Sc2ccc(F)c(F)c2)c(C(=O)O)c1)c1ccc(N(CC2CC2)c2ccc(Cl)cc2)cn1 [2:16, 5-{5-[(4-Chlorophenyl)cyclopropylmethylamino]pyridine-2-carbonyl}-2-(3,4-difluorophenylsulfanyl)benzoic acid]		41
O=C(c1ccc(Sc2ccc(Br)cc2)c(C(=O)O)c1)c1ccc(N(CC2CC2)c2ccc(Cl)cc2)cn1 [2:17, 2-(4-Bromophenylsulfanyl)-5-{5-[(4-chlorophenyl)cyclopropylmethyl-amino]pyridine-2-carbonyl}benzoic acid]		102
O=C(c1ccc(Sc2cccc(Cl)c2)c(C(=O)O)c1)c1ccc(N(CC2CC2)c2ccc(Cl)cc2)cn1 [2:18, 5-{5-[(4-Chlorophenyl)cyclopropylmethylamino]pyridine-2-carbonyl}-2-(3-chlorophenylsulfanyl)benzoic acid]		46
COc1cccc(Sc2ccc(C(=O)c3ccc(N(CC4CC4)c4ccc(Cl)cc4)cn3)cc2C(=O)O)c1 [2:19, 5-{5-[(4-Chlorophenyl)cyclopropylmethylamino]pyridine-2-carbonyl}-2-(3-methoxy-phenylsulfanyl)-benzoic acid]		81
COc1ccc(Sc2ccc(C(=O)c3ccc(N(CC4CC4)c4ccc(Cl)cc4)cn3)cc2C(=O)O)cc1 [2:20, 5-{5-[(4-Chlorophenyl)cyclopropylmethylamino]pyridine-2-carbonyl}-2-(4-methoxyphenylsulfanyl)benzoic acid]		85
CCCCCCSc1cc(C(=O)O)cc(C(=O)c2ccc(N(C)c3ccc(Cl)cc3)cn2)c1 [2:23, 3-{5-[(4-Chlorophenyl)methylamino]pyridine-2-carbonyl}-5-(1-hexyl)-sulfanylbenzoic acid]		215
CN(c1ccc(Cl)cc1)c1ccc(C(=O)c2cc(Sc3ccccc3)cc(C(=O)O)c2)nc1 [2:24, 3-{5-[(4-Chlorophenyl)methylamino]pyridine-2-carbonyl}-5-phenylsulfanyl-benzoic acid]		135
COc1cccc(Sc2cc(C(=O)O)cc(C(=O)c3ccc(N(C)c4ccc(Cl)cc4)cc3)c2)c1 [2:25, 3-(4-((4-Chlorophenyl)(methyl)amino)benzoyl)-5-(3-methoxyphenylsulfanyl)benzoic acid]		143
CN(c1ccc(Cl)cc1)c1ccc(C(=O)c2cc(Sc3cccc(Cl)c3)cc(C(=O)O)c2)cc1 [2:26, 3-(4-((4-Chlorophenyl)(methyl)amino)benzoyl)-5-(3-chlorophenylsulfanyl)benzoic acid]		165
